Test results taken from ChEMBL document CHEMBL5316346, “Targeting Melanocortin Receptors Using SNAr-Type Macrocyclization: A Doubly Orthogonal Route to Cyclic Peptide Conjugates” (J Med Chem, 2023).

Key:
Melanocortin receptor 3 [1] = biological target: T1, Melanocortin receptor 3 (Homo sapiens, UniProt P41968); assay: Displacement of sCy5-MT-I from human MC3R stably expressed in human HEK293 cells incubated for 2 hrs by Cheng-Prusoff equation based FACS analysis; format: cell-based
Melanocortin receptor 4 [2] = biological target: T2, Melanocortin receptor 4 (Homo sapiens, UniProt P32245); assay: Displacement of sCy5-MT-I from human MC4R stably expressed in human HEK293 cells incubated for 2 hrs by Cheng-Prusoff equation based FACS analysis; format: cell-based
T2 sequence (P32245 whole entry): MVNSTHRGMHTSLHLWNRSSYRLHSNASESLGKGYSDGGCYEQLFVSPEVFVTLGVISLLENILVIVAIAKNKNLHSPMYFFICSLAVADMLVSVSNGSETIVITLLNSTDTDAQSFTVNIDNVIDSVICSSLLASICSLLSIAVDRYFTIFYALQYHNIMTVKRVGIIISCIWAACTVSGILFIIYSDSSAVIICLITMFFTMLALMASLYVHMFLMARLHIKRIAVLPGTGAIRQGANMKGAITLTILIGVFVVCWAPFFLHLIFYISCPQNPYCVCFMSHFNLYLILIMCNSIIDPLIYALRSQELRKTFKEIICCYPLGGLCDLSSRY

[3] = biological target: T3, Melanocyte-stimulating hormone receptor (Homo sapiens, UniProt Q01726); assay: Agonist activity at human MC1R stably expressed in human Flp-In-293 cells assessed as cAMP accumulation incubated for 45 mins in presence of IBMX by Lance Ultra cAMP assay; format: functional, cell-based
Target sequence in this assay (Q01726 whole entry): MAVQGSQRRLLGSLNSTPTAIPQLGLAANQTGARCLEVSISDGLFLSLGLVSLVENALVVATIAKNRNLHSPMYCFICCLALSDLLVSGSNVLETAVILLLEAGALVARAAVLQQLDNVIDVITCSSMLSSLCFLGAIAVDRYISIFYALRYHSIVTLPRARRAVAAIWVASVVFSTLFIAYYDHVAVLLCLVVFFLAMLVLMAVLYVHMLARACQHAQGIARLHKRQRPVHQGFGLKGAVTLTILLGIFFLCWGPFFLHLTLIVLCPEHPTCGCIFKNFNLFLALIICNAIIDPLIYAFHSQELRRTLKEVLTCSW

Melanocortin receptor 5 [4] = biological target: T4, Melanocortin receptor 5 (Homo sapiens, UniProt P33032); assay: Displacement of sCy5-MT-I from human MC5R stably expressed in human HEK293 cells incubated for 2 hrs by Cheng-Prusoff equation based FACS analysis; format: cell-based
T4 sequence (P33032 whole entry): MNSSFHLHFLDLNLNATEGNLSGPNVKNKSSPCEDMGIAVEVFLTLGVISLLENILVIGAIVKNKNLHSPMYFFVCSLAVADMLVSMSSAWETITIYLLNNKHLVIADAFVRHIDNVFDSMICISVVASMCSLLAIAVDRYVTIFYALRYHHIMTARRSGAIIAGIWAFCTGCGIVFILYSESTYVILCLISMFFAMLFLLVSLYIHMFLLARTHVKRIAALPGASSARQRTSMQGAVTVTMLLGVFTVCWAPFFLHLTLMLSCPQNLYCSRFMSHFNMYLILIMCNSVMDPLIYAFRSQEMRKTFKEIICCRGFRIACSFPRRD

Melanocortin receptor 4 [5] = biological target: T2, Melanocortin receptor 4; assay: Agonist activity at human MC4R stably expressed in human Flp-In-293 cells assessed as cAMP accumulation incubated for 45 mins in presence of IBMX by Lance Ultra cAMP assay; format: functional, cell-based
Melanocortin receptor 3 [6] = biological target: T1, Melanocortin receptor 3; assay: Agonist activity at human MC3R stably expressed in human Flp-In-293 cells assessed as cAMP accumulation incubated for 45 mins in presence of IBMX by Lance Ultra cAMP assay; format: functional, cell-based
[7] = biological target: T3, Melanocyte-stimulating hormone receptor; assay: Displacement of sCy5-MT-I from human MC1R stably expressed in human HEK293 cells incubated for 2 hrs by Cheng-Prusoff equation based FACS analysis; format: cell-based
Target sequence in this assay (Q01726 whole entry): as the sequence (Q01726 whole entry) above

Melanocortin receptor 3 [8] = biological target: T1, Melanocortin receptor 3; assay: Agonist activity at human MC3R stably expressed in human Flp-In-293 cells assessed as cAMP accumulation at 1 uM incubated for 45 mins in presence of IBMX by Lance Ultra cAMP assay; format: functional, cell-based; settings: filed as agonist
Melanocortin receptor 5 [9] = biological target: T4, Melanocortin receptor 5; assay: Agonist activity at human MC5R stably expressed in human Flp-In-293 cells assessed as cAMP accumulation at 1 uM incubated for 45 mins in presence of IBMX by Lance Ultra cAMP assay; format: functional, cell-based
[10] = biological target: T3, Melanocyte-stimulating hormone receptor; assay: Agonist activity at human MC1R stably expressed in human Flp-In-293 cells assessed as cAMP accumulation at 1 uM incubated for 45 mins in presence of IBMX by Lance Ultra cAMP assay; format: functional, cell-based; settings: filed as agonist
Target sequence in this assay (Q01726 whole entry, looked up): as the sequence (Q01726 whole entry) above

Melanocortin receptor 5 [11] = biological target: T4, Melanocortin receptor 5; assay: Agonist activity at human MC5R stably expressed in human Flp-In-293 cells assessed as cAMP accumulation incubated for 45 mins in presence of IBMX by Lance Ultra cAMP assay; format: functional, cell-based

T1 sequence (P41968 whole entry): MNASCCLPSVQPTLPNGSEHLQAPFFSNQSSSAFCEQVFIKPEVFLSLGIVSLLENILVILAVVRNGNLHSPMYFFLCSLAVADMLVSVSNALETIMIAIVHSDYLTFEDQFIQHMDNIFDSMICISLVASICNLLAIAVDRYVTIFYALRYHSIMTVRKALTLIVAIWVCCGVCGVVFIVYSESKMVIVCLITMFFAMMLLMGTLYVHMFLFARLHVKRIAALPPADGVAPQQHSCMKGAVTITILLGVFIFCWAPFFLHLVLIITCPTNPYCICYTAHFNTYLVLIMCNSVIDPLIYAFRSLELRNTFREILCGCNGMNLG

SMILES	Ki (Melanocortin receptor 3 [1])	Ki (Melanocortin receptor 4 [2]; read-out: pKi (converted))	EC50 ([3]; read-out: pEC50 (converted))	Ki (Melanocortin receptor 5 [4])	EC50 (Melanocortin receptor 4 [5]; read-out: pEC50 (converted))	EC50 (Melanocortin receptor 3 [6])	Ki [7]	Activity (Melanocortin receptor 3 [8])	Activity (Melanocortin receptor 5 [9]; filed as agonist)	Activity (Melanocortin receptor 5 [9])	Activity [10]	EC50 (Melanocortin receptor 5 [11])	Ki (Melanocortin receptor 4 [2]; read-out: Ki)	EC50 ([3]; read-out: EC50)	EC50 (Melanocortin receptor 4 [5]; read-out: EC50)
NC(=O)[C@@H]1CSc2ccc([N+](=O)[O-])cc2C(=O)N[C@@H](Cc2cnc[nH]2)C(=O)N[C@H](Cc2ccccc2)C(=O)N[C@@H](CCCN=C(N)N)C(=O)N[C@@H](Cc2c[nH]c3ccccc23)C(=O)N1	316 nM	1.58 nM	1260 nM	> 1000 nM	501 nM	5010 nM	126 nM								
N=C(N)NCCC[C@@H]1NC(=O)[C@@H](Cc2ccccc2)NC(=O)[C@H](Cc2c[nH]cn2)NC(=O)c2cc(N)ccc2SC[C@@H](C(N)=O)NC(=O)[C@H](Cc2c[nH]c3ccccc23)NC1=O	813 nM	0.331 nM	50.1 nM	> 1000 nM	316 nM		269 nM	42%	60%						
C[C@H]1NC(=O)c2cc(C(=N)N)ccc2SC[C@@H](C(N)=O)NC(=O)[C@H](Cc2c[nH]c3ccccc23)NC(=O)[C@H](CCCNC(=N)N)NC(=O)[C@@H](Cc2ccccc2)NC(=O)[C@H](Cc2c[nH]cn2)NC1=O	148 nM	0.162 nM	4.79 nM	> 1000 nM	0.275 nM	91.2 nM	3.55 nM		41%						
C[C@@H]1NC(=O)[C@H](Cc2c[nH]c3ccccc23)NC(=O)[C@H](CCCNC(=N)N)NC(=O)[C@@H](Cc2ccccc2)NC(=O)[C@H](Cc2c[nH]cn2)NC(=O)c2cc([N+](=O)[O-])ccc2SC[C@@H](C(N)=O)NC1=O	7.94 nM	1.26 nM	9.77 nM	> 1000 nM	6.31 nM	31.6 nM	1.26 nM			5%					
N#Cc1ccc2c(c1)C(=O)N[C@@H](Cc1c[nH]cn1)C(=O)N[C@H](Cc1ccccc1)C(=O)N[C@@H](CCCNC(=N)N)C(=O)N[C@@H](Cc1c[nH]c3ccccc13)C(=O)N[C@H](C(N)=O)CS2	661 nM	0.794 nM		> 1000 nM	63.1 nM		158 nM	44%		0%	58%				
C[C@@H]1NC(=O)c2cc(-c3cn([C@@H]4O[C@H](CO)[C@@H](O)[C@H](O)[C@H]4O)nn3)ccc2SC[C@@H](C(N)=O)NC(=O)[C@H](Cc2c[nH]c3ccccc23)NC(=O)[C@H](CCCNC(=N)N)NC(=O)[C@@H](Cc2ccccc2)NC(=O)[C@H](Cc2c[nH]cn2)NC1=O	174 nM		16.6 nM	> 1000 nM	0.135 nM	63.1 nM	2.51 nM					295 nM	0.06 nM		
C[C@@H]1NC(=O)c2cc([N+](=O)[O-])ccc2SC[C@@H](C(N)=O)NC(=O)[C@H](Cc2c[nH]c3ccccc23)NC(=O)[C@H](CCCNC(=N)N)NC(=O)[C@@H](Cc2ccccc2)NC(=O)[C@H](Cc2c[nH]cn2)NC1=O	513 nM	3.02 nM	63.1 nM	> 1000 nM	20 nM	1260 nM	56.2 nM			11%					
C#Cc1ccc2c(c1)C(=O)N[C@H](C)C(=O)N[C@@H](Cc1c[nH]cn1)C(=O)N[C@H](Cc1ccccc1)C(=O)N[C@@H](CCCNC(=N)N)C(=O)N[C@@H](Cc1c[nH]c3ccccc13)C(=O)N[C@H](C(N)=O)CS2	132 nM	0.457 nM	2.24 nM	> 1000 nM	0.447 nM	34.7 nM	3.39 nM					372 nM			
C[C@@H]1NC(=O)c2cc(NC(=S)Nc3ccc4c(c3)C(=O)OC43c4ccc(O)cc4Oc4cc(O)ccc43)ccc2SC[C@@H](C(N)=O)NC(=O)[C@H](Cc2c[nH]c3ccccc23)NC(=O)[C@H](CCCNC(=N)N)NC(=O)[C@@H](Cc2ccccc2)NC(=O)[C@H](Cc2c[nH]cn2)NC1=O			20.9 nM					73%	64%					24 nM	0.98 nM
C[C@H]1NC(=O)[C@H](Cc2c[nH]c3ccccc23)NC(=O)[C@H](CCCNC(=N)N)NC(=O)[C@@H](Cc2ccccc2)NC(=O)[C@H](Cc2c[nH]cn2)NC(=O)c2cc([N+](=O)[O-])ccc2SC[C@@H](C(N)=O)NC1=O	437 nM	0.871 nM	33.9 nM	> 1000 nM	5.01 nM	7.94 nM	79.4 nM			1%					
N=C(N)NCCC[C@@H]1NC(=O)[C@@H](Cc2ccccc2)NC(=O)[C@H](Cc2cnc[nH]2)NC(=O)c2cc([N+](=O)[O-])ccc2SC[C@@H](C(N)=O)NC(=O)[C@H](Cc2c[nH]c3ccccc23)NC1=O										3%					
C[C@H]1NC(=O)c2cc([N+](=O)[O-])ccc2SC[C@@H](C(N)=O)NC(=O)[C@H](Cc2c[nH]c3ccccc23)NC(=O)[C@H](CCCNC(=N)N)NC(=O)[C@@H](Cc2ccccc2)NC(=O)[C@H](Cc2c[nH]cn2)NC1=O	79.4 nM	0.102 nM	1.58 nM	> 1000 nM	1 nM	200 nM	1.12 nM			15%					
C#Cc1ccc2c(c1)C(=O)N[C@@H](Cc1c[nH]cn1)C(=O)N[C@H](Cc1ccccc1)C(=O)N[C@@H](CCCNC(=N)N)C(=O)N[C@@H](Cc1c[nH]c3ccccc13)C(=O)N[C@H](C(N)=O)CS2	741 nM	0.234 nM	34.7 nM	> 1000 nM	89.1 nM	316 nM	64.6 nM			14%					
C[C@H]1NC(=O)c2cc(C#N)ccc2SC[C@@H](C(N)=O)NC(=O)[C@H](Cc2c[nH]c3ccccc23)NC(=O)[C@H](CCCNC(=N)N)NC(=O)[C@@H](Cc2ccccc2)NC(=O)[C@H](Cc2c[nH]cn2)NC1=O	263 nM	0.141 nM	2.69 nM	> 1000 nM	0.501 nM	39.8 nM	3.8 nM			34%					
C[C@H]1NC(=O)c2cc(N)ccc2SC[C@@H](C(N)=O)NC(=O)[C@H](Cc2c[nH]c3ccccc23)NC(=O)[C@H](CCCNC(=N)N)NC(=O)[C@@H](Cc2ccccc2)NC(=O)[C@H](Cc2c[nH]cn2)NC1=O	97.7 nM	0.148 nM	10 nM	> 1000 nM	1.58 nM	50.1 nM	5.01 nM			17%					
